In PubChem BioAssay (NCI):
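Protocol summary: plate cells (96-well), add compound at 5 concentrations, incubate 48 h, interpolate endpoints linearly. Here, GI50 denotes the concentration required for 50% inhibition of growth. The concentration for full growth arrest is given as TGI.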

How the values were obtained:
Assay in all cases: inhibition of tumour cell growth, NCI panel, 48 h
UACC-257 melanoma = tested on: UACC-257 melanoma
RPMI-8226 leukemia = tested on: RPMI-8226 leukemia
UACC-62 melanoma = tested on: UACC-62 melanoma
HL-60(TB) leukemia = tested on: HL-60(TB) leukemia
A498 renal = tested on: A498 renal
SR leukemia = tested on: SR leukemia
OVCAR-4 ovarian = tested on: OVCAR-4 ovarian
DU-145 prostate = tested on: DU-145 prostate
SF-539 CNS = tested on: SF-539 CNS
HOP-92 NSCLC = tested on: HOP-92 NSCLC
HOP-62 NSCLC = tested on: HOP-62 NSCLC
IGROV1 ovarian = tested on: IGROV1 ovarian
MOLT-4 leukemia = tested on: MOLT-4 leukemia
NCI-H23 lung = tested on: NCI-H23 lung
MALME-3M melanoma = tested on: MALME-3M melanoma
PC-3 prostate = tested on: PC-3 prostate
UO-31 renal = tested on: UO-31 renal
NCI-H226 lung = tested on: NCI-H226 lung
SK-OV-3 ovarian = tested on: SK-OV-3 ovarian
CAKI-1 renal = tested on: CAKI-1 renal
SK-MEL-28 melanoma = tested on: SK-MEL-28 melanoma
RXF 393 renal = tested on: RXF 393 renal
SNB-75 CNS = tested on: SNB-75 CNS
OVCAR-3 ovarian = tested on: OVCAR-3 ovarian
MDA-MB-231 breast = tested on: MDA-MB-231 breast
SF-295 CNS = tested on: SF-295 CNS
EKVX NSCLC = tested on: EKVX NSCLC
MCF7 breast = tested on: MCF7 breast

CNC(=O)c1ccccc1Nc1nc(Nc2ccc(N3CCOCC3)cc2OC)ncc1Cl
GI50 (UACC-257 melanoma): 0.421 µM | TGI (UACC-257 melanoma): > 100 µM | GI50 (RPMI-8226 leukemia): 2.02 µM | TGI (RPMI-8226 leukemia): > 48.5 µM | GI50 (UACC-62 melanoma): 0.239 µM | TGI (UACC-62 melanoma): 2.73 µM | GI50 (HL-60(TB) leukemia): 0.206 µM | TGI (HL-60(TB) leukemia): > 57.1 µM | GI50 (A498 renal): 0.488 µM | TGI (A498 renal): 2.39 µM | GI50 (SR leukemia): 0.0251 µM | TGI (SR leukemia): 3.25 µM | GI50 (OVCAR-4 ovarian): 1.95 µM | TGI (OVCAR-4 ovarian): > 47.1 µM | GI50 (DU-145 prostate): 0.768 µM | TGI (DU-145 prostate): > 39.2 µM | GI50 (SF-539 CNS): 1.29 µM | TGI (SF-539 CNS): 7.68 µM | GI50 (HOP-92 NSCLC): 0.0571 µM | TGI (HOP-92 NSCLC): 1.03 µM | GI50 (HOP-62 NSCLC): 0.341 µM | TGI (HOP-62 NSCLC): 9.07 µM | GI50 (IGROV1 ovarian): 0.277 µM | TGI (IGROV1 ovarian): 2.15 µM | GI50 (MOLT-4 leukemia): 1.85 µM | TGI (MOLT-4 leukemia): > 63.7 µM | GI50 (NCI-H23 lung): 0.571 µM | TGI (NCI-H23 lung): > 43.8 µM | GI50 (MALME-3M melanoma): 0.405 µM | TGI (MALME-3M melanoma): 16.9 µM | GI50 (PC-3 prostate): 1.39 µM | TGI (PC-3 prostate): > 66.9 µM | GI50 (UO-31 renal): 0.4 µM | TGI (UO-31 renal): 4.44 µM | GI50 (NCI-H226 lung): 1.01 µM | TGI (NCI-H226 lung): > 74 µM | GI50 (SK-OV-3 ovarian): 0.543 µM | TGI (SK-OV-3 ovarian): 3.7 µM | GI50 (CAKI-1 renal): 0.165 µM | TGI (CAKI-1 renal): 1.58 µM | GI50 (SK-MEL-28 melanoma): 1.35 µM | TGI (SK-MEL-28 melanoma): > 37.1 µM | GI50 (RXF 393 renal): 0.797 µM | TGI (RXF 393 renal): 3.31 µM | GI50 (SNB-75 CNS): 0.766 µM | TGI (SNB-75 CNS): 5.44 µM | GI50 (OVCAR-3 ovarian): 1.73 µM | TGI (OVCAR-3 ovarian): > 53.3 µM | GI50 (MDA-MB-231 breast): 1.09 µM | TGI (MDA-MB-231 breast): 5.26 µM | GI50 (SF-295 CNS): 0.503 µM | TGI (SF-295 CNS): 11.1 µM | GI50 (EKVX NSCLC): 0.274 µM | TGI (EKVX NSCLC): > 24.7 µM | GI50 (MCF7 breast): 0.133 µM | TGI (MCF7 breast): > 50.7 µM
